Test results taken from ChEMBL document CHEMBL1151247, “Quinazolin-4-one derivatives from Streptomyces isolates” (J Nat Prod, 2004).
Activity calls are given as the source filed them.

Legend:
Assay type in all cases: functional, organism-based
Chlorella vulgaris = experiment: Antialgal activity against Chlorella vulgaris
Rhizomucor miehei = experiment: Antifungal activity against Mucor miehei
Candida albicans = experiment: Antifungal activity against Candida albicans
Chlorella sorokiniana = experiment: Antialgal activity against Chlorella sorokiniana
[1] = test system: Streptomyces viridochromogenes; experiment: Antibacterial activity against Streptomyces viridochromogenes
Staphylococcus aureus = experiment: Antibacterial activity against Staphylococcus aureus
Desmodesmus subspicatus = experiment: Antialgal activity against Scenedesmus subspicatus
Escherichia coli = experiment: Antibacterial activity against Escherichia coli
Bacillus subtilis = experiment: Antibacterial activity against Bacillus subtilis

Measured: Activity

C[C@@H](O)[C@@]1(C)NC(=O)c2ccccc2N1 (relative stereo)
inactive: all assays above

C[C@@H](O)[C@]1(C)NC(=O)c2ccccc2N1 (relative stereo)
inactive: all assays above
